Assays:
human plasma kallikrein = target: T1, human plasma kallikrein (Homo sapiens, UniProt P03952); experiment: Determination of the plasma kallikrein activity (fluorogenic peptide substrate H-Pro-Phe-Arg-AMC); assay type: biochemical; settings: plasma kallikrein from Kordia, 15 min preincubation, 30 min at 22° C., fluorescence; some as mean values from multiple determinations
T1 construct: purchased Kordia
Protocol: (§1) To determine the plasma kallikrein inhibition of the substances according to the invention, a biochemical test system is used which utilizes the reaction of a peptidic plasma kallikrein substrate to determine the enzymatic activity of human plasma kallikrein. Here, plasma kallikrein cleaves from the peptidic plasma kallikrein substrate the C-terminal aminomethylcoumarin (AMC), the fluorescence of which is measured. The determinations are carried out in microtitre plates.
Test substances are dissolved in dimethyl sulfoxide and serially diluted in dimethyl sulfoxide (3000 μM to 0.0078 μM; resulting final concentrations in the test: 50 μM to 0.00013 μM). In each case 1 μl of the diluted substance solutions is placed into the wells of white microtitre plates from Greiner (384 wells). 20 μl of assay buffer (50 mM Tris/HCl pH 7.4; 100 mM sodium chloride solution; 5 mM of calcium chloride solution; 0.1% of bovine serum albumin) and 20 μl of plasma kallikrein from Kordia (0.6 nM in assay buffer) are then added successively. After 15 min of incubation, the enzyme reaction is started by addition of 20 μl of the substrate H-Pro-Phe-Arg-AMC dissolved in assay buffer (10 μM in assay buffer) from Bachem, the mixture is incubated at room temperature (22° C.) for 30 min and fluorescence is then measured (excitation: 360 nm, emission: 460 nm). The measured emissions of the test batches with test substance are compared to those of control batches without test substance (only dimethyl sulfoxide instead of test substance in dimethyl sulfoxide), and IC50 values are calculated from the concentration/activity relationships. Activity data from this test are listed in Table B below (some as mean values from multiple independent individual determinations): […]

human factor XIa = target: T2, human factor XIa (Homo sapiens, UniProt P03951); experiment: Measurement of FXIa inhibition (fluorogenic peptide substrate Boc-Glu(OBzl)-Ala-Arg-AMC); assay type: biochemical; settings: factor XIa from Kordia, 15 min preincubation, 30 min at 22° C., fluorescence; some as mean values from multiple determinations
T2 construct: purchased Kordia
Protocol: as §1, with “The factor XIa” for “To determine the plasma kallikrein”, “invention is determined using” for “invention,”, “system” for “system is used”, “factor XIa” for “plasma kallikrein”, “factor XIa.” for “plasma kallikrein.”
Test substances are dissolved in dimethyl sulfoxide and serially diluted in dimethyl sulfoxide (3000 μM to 0.0078 μM; resulting final concentrations in the test: 50 μM to 0.00013 μM). In each case 1 μl of the diluted substance solutions is placed into the wells of white microtitre plates from Greiner (384 wells). 20 μl of assay buffer (50 mM of Tris/HCl pH 7.4; 100 mM of sodium chloride; 5 mM of calcium chloride; 0.1% of bovine serum albumin) and 20 μl of factor XIa from Kordia (0.45 nM in assay buffer) are then added successively. After 15 min of incubation, the enzyme reaction is started by addition of 20 μl of the factor XIa substrate Boc-Glu(OBzl)-Ala-Arg-AMC dissolved in assay buffer (10 μM in assay buffer) from Bachem, the mixture is incubated at room temperature (22° C.) for 30 min and fluorescence is then measured (excitation: 360 nm, emission: 460 nm). The measured emissions of the test batches with test substance are compared to those of control batches without test substance (only dimethyl sulfoxide instead of test substance in dimethyl sulfoxide), and IC50 values are calculated from the concentration/activity relationships.

T1 sequence (P03952 391-638 limits assumed): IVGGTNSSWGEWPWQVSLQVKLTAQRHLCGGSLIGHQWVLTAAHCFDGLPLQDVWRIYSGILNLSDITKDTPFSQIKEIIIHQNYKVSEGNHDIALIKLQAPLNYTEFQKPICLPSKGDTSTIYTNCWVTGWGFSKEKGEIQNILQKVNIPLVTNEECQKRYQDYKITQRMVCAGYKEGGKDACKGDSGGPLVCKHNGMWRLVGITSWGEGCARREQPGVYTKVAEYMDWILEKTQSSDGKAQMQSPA
T1 sequence (P03952 20-390 partner limits assumed): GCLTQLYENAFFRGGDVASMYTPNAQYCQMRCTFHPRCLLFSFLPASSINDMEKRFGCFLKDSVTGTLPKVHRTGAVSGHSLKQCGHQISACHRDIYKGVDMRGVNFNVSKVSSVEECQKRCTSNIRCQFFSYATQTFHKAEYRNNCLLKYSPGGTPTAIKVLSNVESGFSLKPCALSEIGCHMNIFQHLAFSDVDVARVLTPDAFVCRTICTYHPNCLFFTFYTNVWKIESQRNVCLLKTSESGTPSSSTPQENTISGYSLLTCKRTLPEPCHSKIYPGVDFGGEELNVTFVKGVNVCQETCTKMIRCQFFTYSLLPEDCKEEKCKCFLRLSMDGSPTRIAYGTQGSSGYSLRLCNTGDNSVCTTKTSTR
T2 sequence (P03951 388-625 limits assumed): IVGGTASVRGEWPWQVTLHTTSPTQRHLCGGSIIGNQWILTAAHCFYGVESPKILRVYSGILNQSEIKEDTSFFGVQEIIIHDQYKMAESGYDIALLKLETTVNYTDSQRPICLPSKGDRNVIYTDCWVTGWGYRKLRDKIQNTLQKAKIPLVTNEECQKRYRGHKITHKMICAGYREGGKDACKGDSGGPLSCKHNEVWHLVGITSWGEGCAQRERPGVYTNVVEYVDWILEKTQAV
T2 sequence (P03951 19-387 partner limits assumed): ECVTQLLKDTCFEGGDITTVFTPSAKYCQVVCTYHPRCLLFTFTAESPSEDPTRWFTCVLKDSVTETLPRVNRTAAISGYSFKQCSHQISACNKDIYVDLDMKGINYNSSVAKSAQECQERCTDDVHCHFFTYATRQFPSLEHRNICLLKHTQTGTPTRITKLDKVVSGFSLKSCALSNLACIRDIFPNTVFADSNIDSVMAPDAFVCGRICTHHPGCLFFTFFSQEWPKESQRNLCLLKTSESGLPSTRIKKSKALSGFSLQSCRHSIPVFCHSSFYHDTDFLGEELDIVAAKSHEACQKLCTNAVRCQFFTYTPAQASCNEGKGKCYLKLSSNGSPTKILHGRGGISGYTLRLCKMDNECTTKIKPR

| IC50 (human plasma kallikrein) | IC50 (human factor XIa) | Structure (SMILES) |
| --- | --- | --- |
| 110 nM | 3.6 nM | C[C@@H]1Cc2ccc(Cl)cc2-c2cc(=O)n([C@@H](C[C@H](C)OC(F)F)C(=O)Nc3ccc(C(N)=O)cc3)cc2CO1 (single isomer, unassigned) [Example 19] |
| 40 nM | 5.9 nM | CC[C@@H](C(=O)Nc1ccc(C(N)=O)cc1)n1cc2c(cc1=O)-c1c(ccc(Cl)c1F)C[C@@H](C)O[C@H]2C (single isomer, unassigned) [Example 75] |
| 74 nM | 1.5 nM | CO[C@@H](C)C[C@@H](C(=O)Nc1ccc(C(N)=O)cc1)n1cc2c(cc1=O)-c1c(ccc(Cl)c1F)C[C@@H](C(F)(F)F)OC2 (single isomer, unassigned) [Example 78] |
| 190 nM | 12 nM | CC[C@@H](C(=O)Nc1ccc(C(N)=O)cc1)n1cc2c(cc1=O)-c1c(ccc(Cl)c1F)C[C@@H](C)OC2 (single isomer, unassigned) [Example 28] |
| 110 nM | 2.5 nM | COCC[C@@H](C(=O)Nc1ccc(C(N)=O)cc1)n1cc2c(cc1=O)-c1cc(Cl)ccc1C[C@@H](C(F)(F)F)OC2 (single isomer, unassigned) [Example 63] |
| 110 nM | 5.4 nM | C[C@@H]1Cc2ccc(Cl)cc2-c2cc(=O)n([C@@H](CCOC(C)(C)C)C(=O)Nc3ccc(C(N)=O)cc3)cc2CO1 (single isomer, unassigned) [Example 24] |
| 220 nM | 3.9 nM | CO[C@H](C[C@@H](C(=O)Nc1ccc(C(N)=O)cc1)n1cc2c(cc1=O)-c1cc(Cl)ccc1C[C@@H](C)OC2)C1CC1 (single isomer, unassigned) [Example 14] |
| 2300 nM | 110 nM | CC[C@@H](C(=O)Nc1ccc(C(N)=O)c(F)c1)n1cc2c(cc1=O)-c1cc(Cl)ccc1CC(C(F)F)OC2 (mixture of isomers) [Example 46, 4-({(2S)-2-[11-Chloro-7-(difluoromethyl)-2-oxo-7,8-dihydro-2H-[3]benzoxocino[5,6-c]pyridin-3(5H)-yl]butanoyl}amino)-2-fluorobenzamide] |
| 205 nM | 4.6 nM | CO[C@@H](C)C[C@@H](C(=O)Nc1ccc(C(N)=O)cc1)n1cc2c(cc1=O)-c1cc(Cl)ccc1C[C@@H](C)OC2 (single isomer, unassigned) [Example 13] |
| 260 nM | 4.5 nM | CC1Cc2ccc(Cl)cc2-c2cc(=O)n(C(C[C@@H]3COCCO3)C(=O)Nc3ccc(C(N)=O)cc3)cc2CO1 (mixture of isomers) [Example 9, 4-({2-(11-Chloro-7-methyl-2-oxo-7,8-dihydro-2H-[3]benzoxocino[5,6-c]pyridin-3(5H)-yl)-3-[(2R)-1,4-dioxan-2-yl]propanoyl}amino)benzamide] |
| 110 nM | 3.5 nM | C[C@@H]1Cc2ccc(Cl)cc2-c2cc(=O)n(C(CCOC(F)F)C(=O)Nc3ccc(C(N)=O)cc3)cc2CO1 (mixture of isomers) [Example 16, 4-{2-[(7R)-11-Chlor-7-methyl-2-oxo-7,8-dihydro-2H-[3]benzoxocino[5,6-c]pyridin-3(5H)-yl]-4-(difluoromethoxy)butanamido}benzamide] |

The next lines start with the compound.

| Structure (SMILES) | IC50 (human plasma kallikrein) | IC50 (human factor XIa) |
| --- | --- | --- |
| CO[C@@H](C)C[C@@H](C(=O)Nc1ccc(C(N)=O)cc1)n1cc2c(cc1=O)-c1cc(Cl)ccc1C[C@@H](C)O[C@H]2C (single isomer, unassigned) [Example 74] | 30 nM | 1.4 nM |
| NC(=O)c1ccc(NC(=O)[C@H](C[C@@H]2COCCO2)n2cc3c(cc2=O)-c2cc(Cl)ccc2C[C@@H](C(F)(F)F)OC3)cc1 (single isomer, unassigned) [Example 59] | 89 nM | 0.9 nM |
| CC1Cc2ccc(Cl)cc2-c2cc(=O)n(C(CCOC(C)(C)C)C(=O)Nc3ccc(C(N)=O)cc3)cc2CO1 (mixture of isomers) [Example 23, 4-{[4-tert-Butoxy-2-(11-chloro-7-methyl-2-oxo-7,8-dihydro-2H-[3]benzoxocino[5,6-c]pyridin-3(5H)-yl)butanoyl]amino}benzamide] | 410 nM | 22 nM |
| NC(=O)c1ccc(NC(=O)[C@H](C[C@@H]2CCCCO2)n2cc3c(cc2=O)-c2cc(Cl)ccc2C[C@@H](CO)OC3)cc1F (single isomer, unassigned) [Example 33] | 480 nM | 9.1 nM |
| NC(=O)c1ccc(NC(=O)C(C[C@@H]2CCCCO2)n2cc3c(cc2=O)-c2cc(Cl)ccc2CC(CO)OC3)cc1F (mixture of isomers) [Example 32, 4-{2-[11-Chloro-7-(hydroxymethyl)-2-oxo-7,8-dihydro-2H-[3]benzoxocino[5,6-c]pyridin-3(5H)-yl]-3-[(2S)-tetrahydro-2H-pyran-2-yl]propanamido}-2-fluorobenzamide] | 1300 nM | 30 nM |
| COCCC(C(=O)Nc1ccc(C(N)=O)c(F)c1)n1cc2c(cc1=O)-c1cc(Cl)ccc1CC(C(F)(F)F)OC2 (mixture of isomers) [Example 60, 4-({2-[11-Chloro-2-oxo-7-(trifluoromethyl)-7,8-dihydro-2H-[3]benzoxocino[5,6-c]pyridin-3(5H)-yl]-4-methoxybutanoyl}amino)-2-fluorobenzamide] | 780 nM | 26 nM |
| NC(=O)c1ccc(NC(=O)C(C[C@@H]2COCCO2)n2cc3c(cc2=O)-c2cc(Cl)ccc2CC(CO)OC3)cc1 (mixture of isomers) [Example 36, 4-{2-[11-Chloro-7-(hydroxymethyl)-2-oxo-7,8-dihydro-2H-[3]benzoxocino[5,6-c]pyridin-3(5H)-yl]-3-[(2R)-1,4-dioxan-2-yl]propanamido}benzamide] | 1000 nM | 12 nM |
| NC(=O)c1ccc(NC(=O)C(C[C@@H]2COCCO2)n2cc3c(cc2=O)-c2cc(Cl)ccc2CC(C(F)(F)F)OC3)cc1F (mixture of isomers) [Example 56, 4-({2-[11-Chloro-2-oxo-7-(trifluoromethyl)-7,8-dihydro-2H-[3]benzoxocino[5,6-c]pyridin-3(5H)-yl]-3-[(2R)-1,4-dioxan-2-yl]propanoyl}amino)-2-fluorobenzamide] | 740 nM | 7.6 nM |
| CC[C@@H]1Cc2ccc(Cl)cc2-c2cc(=O)n(C(C[C@@H]3CCCCO3)C(=O)Nc3ccc(C(N)=O)c(F)c3)cc2CO1 (mixture of isomers) [Example 30, 4-{2-[(7R)-11-Chloro-7-ethyl-2-oxo-7,8-dihydro-2H-[3]benzoxocino[5,6-c]pyridin-3(5H)-yl]-3-[(2S)-tetrahydro-2H-pyran-2-yl]propanamido}-2-fluorobenzamide] | 1300 nM | 25 nM |
| C[C@@H]1Cc2ccc(Cl)cc2-c2cc(=O)n([C@@H](CCOC(C)(C)C)C(=O)Nc3ccc(C(N)=O)c(F)c3)cc2CO1 (single isomer, unassigned) [Example 22] | 280 nM | 19 nM |
| NC(=O)c1ccc(NC(=O)C(C[C@@H]2COCCO2)n2cc3c(cc2=O)-c2cc(Cl)ccc2CC(C(F)(F)F)OC3)cc1 (mixture of isomers) [Example 58, 4-({2-[11-Chloro-2-oxo-7-(trifluoromethyl)-7,8-dihydro-2H-[3]benzoxocino[5,6-c]pyridin-3(5H)-yl]-3-[(2R)-1,4-dioxan-2-yl]propanoyl}amino)benzamide] | 230 nM | 2.1 nM |
| CC(C)C1Cc2ccc(Cl)cc2-c2cc(=O)n(C(C[C@@H]3COCCO3)C(=O)Nc3ccc4nn(C)nc4c3)cc2CO1 (mixture of isomers) [Example 44, 2-(11-Chloro-7-isopropyl-2-oxo-7,8-dihydro-2H-[3]benzoxocino[5,6-c]pyridin-3(5H)-yl)-3-[(2R)-1,4-dioxan-2-yl]-N-(2-methyl-2H-benzotriazol-5-yl)propanamide] | 1600 nM | 49 nM |

Source: US20220144848A1, “SUBSTITUTED OXOPYRIDINE DERIVATIVES” (Bayer Aktiengesellschaft, priority 2018, published 2022)
